Reference: patent US9139557B2, “Carboxamide compounds and their use as calpain inhibitors” (Abbott GmbH & Co. KG, priority 2006, dated 2015)

Legend:
Type in all cases: biochemical
cathepsin B = target: T1, cathepsin B (Homo sapiens, UniProt P07858); assay: Cathepsin B enzyme inhibition in vitro (kinetic fluorescence assay); details: Ki(cathepsin B)/Ki(calpain) ratio
T1 construct: cathepsin B—isolated from human liver; purchased Calbiochem 219362; host or cells: human liver (tissue isolate)
Protocol: (§1) Testing for blockade of the corresponding enzymic activities was carried out by means of kinetic fluorescence assays (excitation 390 nm, emission 460 nm).
(§2) Apparent Ki values were calculated from the experimentally determined IC50 values by the Cheng-Prussoff relation assuming a reversible competitive enzyme inhibition. The Km values of the substrates used under the assay conditions indicated above were: 90 μM (Z-Phe-Arg-AMC, cathepsin B), 10 μM (Z-Gly-Pro-Arg-AMC, cathepsin K), 2 μM (Z-Phe-Arg-AMC, cathepsin L), and 30 μM (Z-Val-Val-Arg-AMC, cathepsin S).
(§3) The indicated Ki values are averages of the inhibition constants calculated on the basis of 2 to 4 independent dose-effect plots.
(§4) • 1. Calpain I: • 20 nM calpain-I—isolated from human erythrocytes (Calbiochem #208713), 100 μM Suc-Leu-Tyr-AMC (Bachem #1-1355) as substrate in buffer with 62 mM imidazole, 0.3 mM CaCl2, 0.10% CHAPS, 0.05% BSA, 1 mM DTT at pH 7.3 and room temperature. • 2. Cathepsin B: • 0.25 nM cathepsin B—isolated from human liver (Calbiochem #219362), 100 μM Z-Phe-Arg-AMC (Bachem #1-1160) as substrate 50 mM MES, 2 mM EDTA, 0.05% Brij 35, 2.5 mM L-cysteine, pH 6.0, room temperature. • 3. Cathepsin K: • 3 nM cathepsin K—activated from recombinant human procathepsin K from E. coli (Calbiochem #342001), 10 μM Z-Gly-Pro-Arg-AMC (Biomol #P-142) as substrate in 50 mM MES, 2 mM EDTA, 0.05% Brij 35, 2.5 mM L-cysteine, pH 6.0, room temperature. • 4. Cathepsin L: • 1 nM cathepsin L—isolated from human liver (Calbiochem #219402), 2 μM Z-Phe-Arg-AMC (Bachem #1-1160) as substrate in 50 mM MES, 2 mM EDTA, 0.05% Brij 35, 2.5 mM L-cysteine, pH 6.0, room temperature. • 5. Cathepsin S: • 0.5 nM recombinant human cathepsin S from E. coli (Calbiochem #219343), 20 μM Z-Val-Val-Arg-AMC (Bachem #1-1540) as substrate in 50 mM MES, 2 mM EDTA, 0.05% Brij 35, 2.5 mM L-cysteine, pH 6.0, room temperature.

cathepsin L = target: T2, cathepsin L (Homo sapiens, UniProt P07711); assay: Cathepsin L enzyme inhibition in vitro (kinetic fluorescence assay); details: Ki(cathepsin L)/Ki(calpain) ratio
T2 construct: cathepsin L—isolated from human liver; purchased Calbiochem 219402; host or cells: human liver (tissue isolate)
In short: (§5)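 Kinetic fluorescence (ex 390/em 460 nm), room temperature: calpain-I (human erythrocyte, 20 nM) with 100 µM Suc-Leu-Tyr-AMC, imidazole/CaCl2 pH 7.3; cathepsin B (liver, 0.25 nM), 100 µM Z-Phe-Arg-AMC; L (liver, 1 nM), 2 µM Z-Phe-Arg-AMC; S (recombinant, 0.5 nM), 20 µM Z-Val-Val-Arg-AMC; cathepsins in MES/EDTA/cysteine pH 6.0. Apparent Ki via Cheng-Prusoff, 2–4 curves averaged.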

cathepsin K = target: T3, cathepsin K (Homo sapiens, UniProt P43235); assay: Cathepsin K enzyme inhibition in vitro (kinetic fluorescence assay); details: Ki(cathepsin K)/Ki(calpain) ratio
T3 construct: purchased Calbiochem 342001; host or cells: E. coli
T3 sequence (P43235 115-329): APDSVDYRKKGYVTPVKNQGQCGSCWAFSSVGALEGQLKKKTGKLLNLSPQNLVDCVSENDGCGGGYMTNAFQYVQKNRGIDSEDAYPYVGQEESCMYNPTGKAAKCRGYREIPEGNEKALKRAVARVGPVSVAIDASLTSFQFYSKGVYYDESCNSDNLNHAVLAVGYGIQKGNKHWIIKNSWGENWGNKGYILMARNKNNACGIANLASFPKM
Protocol: as §1, §2, §3, §4

cathepsin S = target: T4, cathepsin S (Homo sapiens, UniProt P25774); assay: Cathepsin S enzyme inhibition in vitro (kinetic fluorescence assay); details: Ki(cathepsin S)/Ki(calpain) ratio
T4 construct: purchased Calbiochem 219343; host or cells: E. coli
In short: as §5

T2 sequence (P07711 114-333): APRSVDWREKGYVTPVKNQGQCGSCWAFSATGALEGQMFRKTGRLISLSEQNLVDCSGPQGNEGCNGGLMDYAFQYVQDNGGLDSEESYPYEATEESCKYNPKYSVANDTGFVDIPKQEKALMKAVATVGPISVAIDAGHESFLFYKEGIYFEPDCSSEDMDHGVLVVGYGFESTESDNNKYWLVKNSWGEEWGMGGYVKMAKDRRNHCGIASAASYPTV
T4 sequence (P25774 115-331): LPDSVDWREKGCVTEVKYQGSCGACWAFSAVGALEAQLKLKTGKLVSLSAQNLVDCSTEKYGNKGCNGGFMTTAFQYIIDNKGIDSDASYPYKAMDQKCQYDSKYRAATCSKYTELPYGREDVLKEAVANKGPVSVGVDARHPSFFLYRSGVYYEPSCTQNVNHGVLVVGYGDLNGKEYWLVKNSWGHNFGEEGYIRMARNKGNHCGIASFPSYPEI

| Compound | Sel cat. B (cathepsin B) | Sel cat. L (cathepsin L) | Sel cat. K (cathepsin K) | Sel cat. S (cathepsin S) |
| --- | --- | --- | --- | --- |
| NC(=O)C(=O)C(Cc1ccccc1)NC(=O)c1cccnc1-n1ccc(-c2cccc(C(F)(F)F)c2)n1 (stereo not shown) [Example 83, N-(3-Amino-1-benzyl-2,3-dioxopropyl)-2-{3-[3-(trifluoromethyl)phenyl]-1H-pyrazol-1-yl}nicotinamide] | + (+ means 10≦Ki(cathepsin B)/Ki(calpain)<30) | ++ (++ means a Ki(cathepsin L)/Ki(calpain) ratio of ≧50) | ++ (++ means a Ki(cathepsin K)/Ki(calpain) ratio of ≧30) | ++ (++ means a Ki(cathepsin S)/Ki(calpain) ratio of ≧100) |
| NC(=O)C(=O)C(Cc1ccccc1)NC(=O)c1cccnc1-n1ccc(-c2ccc3c(c2)OC(F)(F)O3)n1 (stereo not shown) [Example 118, N-[3-Amino-2,3-dioxo-1-(phenylmethyl)propyl]-2-[3-(2,2-difluoro-1,3-benzodioxol-5-yl)-1H-pyrazol-1-yl]pyridine-3-carboxamide] | ++ (++ means a Ki(cathepsin B)/Ki(calpain) ratio of ≧30) | ++ (++ means a Ki(cathepsin L)/Ki(calpain) ratio of ≧50) | + (+ means 10≦Ki(cathepsin K)/Ki(calpain)<30) | ++ (++ means a Ki(cathepsin S)/Ki(calpain) ratio of ≧100) |
| COc1ccc(CC(NC(=O)c2cccnc2-n2ccc(-c3cccc(Cl)c3Cl)n2)C(=O)C(N)=O)cc1 (stereo not shown) [Example 153, N-(3-Amino-1-{[4-(methyloxy)phenyl]methyl}-2,3-dioxopropyl)-2-[3-(2,3-dichlorophenyl)-1H-pyrazol-1-yl]pyridine-3-carboxamide] | ++ (++ means a Ki(cathepsin B)/Ki(calpain) ratio of ≧30) | ++ (++ means a Ki(cathepsin L)/Ki(calpain) ratio of ≧50) | ++ (++ means a Ki(cathepsin K)/Ki(calpain) ratio of ≧30) | ++ (++ means a Ki(cathepsin S)/Ki(calpain) ratio of ≧100) |
| COc1ccc(CC(NC(=O)c2cccnc2-n2ccc(-c3ccc(F)cc3Cl)n2)C(=O)C(N)=O)cc1 (stereo not shown) [Example 111, N-(3-Amino-1-{[4-(methyloxy)phenyl]methyl}-2,3-dioxopropyl)-2-[3-(2-chloro-4-fluorophenyl)-1H-pyrazol-1-yl]pyridine-3-carboxamide] | ++ (++ means a Ki(cathepsin B)/Ki(calpain) ratio of ≧30) | ++ (++ means a Ki(cathepsin L)/Ki(calpain) ratio of ≧50) | ++ (++ means a Ki(cathepsin K)/Ki(calpain) ratio of ≧30) | ++ (++ means a Ki(cathepsin S)/Ki(calpain) ratio of ≧100) |
| NC(=O)C(=O)C(Cc1ccccc1)NC(=O)c1cccnc1-n1ccc(-c2ccc(C(F)(F)F)cc2)n1 (stereo not shown) [Example 60, N-(3-Amino-1-benzyl-2,3-dioxopropyl)-2-{3-[4-(trifluoromethyl)phenyl]-1H-pyrazol-1-yl}nicotinamide] | + (+ means 10≦Ki(cathepsin B)/Ki(calpain)<30) | ++ (++ means a Ki(cathepsin L)/Ki(calpain) ratio of ≧50) | + (+ means 10≦Ki(cathepsin K)/Ki(calpain)<30) | + (+ means 50≦Ki(cathepsin S)/Ki(calpain)<100) |
| COc1ccc(CC(NC(=O)c2cccnc2-n2ccc(-c3ccc(F)cc3)n2)C(=O)C(N)=O)cc1 (stereo not shown) [Example 81, N-[3-Amino-1-(4-methoxybenzyl)-2,3-dioxopropyl]-2-[3-(4-fluorophenyl)-1H-pyrazol-1-yl]nicotinamide] | + (+ means 10≦Ki(cathepsin B)/Ki(calpain)<30) | ++ (++ means a Ki(cathepsin L)/Ki(calpain) ratio of ≧50) | + (+ means 10≦Ki(cathepsin K)/Ki(calpain)<30) | ++ (++ means a Ki(cathepsin S)/Ki(calpain) ratio of ≧100) |
| NC(=O)C(=O)C(Cc1ccccc1)NC(=O)c1cccnc1-n1ccc(-c2cccc(OCc3ccccc3)c2)n1 (stereo not shown) [Example 96, N-[3-Amino-2,3-dioxo-1-(phenylmethyl)propyl]-2-(3-{3-[(phenylmethyl)oxy]phenyl}-1H-pyrazol-1-yl)pyridine-3-carboxamide] | ++ (++ means a Ki(cathepsin B)/Ki(calpain) ratio of ≧30) | ++ (++ means a Ki(cathepsin L)/Ki(calpain) ratio of ≧50) | ++ (++ means a Ki(cathepsin K)/Ki(calpain) ratio of ≧30) | ++ (++ means a Ki(cathepsin S)/Ki(calpain) ratio of ≧100) |
| NC(=O)C(=O)C(Cc1ccccc1)NC(=O)c1cccnc1-n1ccc(-c2cccs2)n1 (stereo not shown) [Example 55, N-(3-Amino-1-benzyl-2,3-dioxopropyl)-2-[3-(2-thienyl)-1H-pyrazol-1-yl]nicotinamide] | + (+ means 10≦Ki(cathepsin B)/Ki(calpain)<30) | ++ (++ means a Ki(cathepsin L)/Ki(calpain) ratio of ≧50) | + (+ means 10≦Ki(cathepsin K)/Ki(calpain)<30) | ++ (++ means a Ki(cathepsin S)/Ki(calpain) ratio of ≧100) |
| NC(=O)C(=O)C(Cc1ccccc1)NC(=O)c1cccnc1-n1ccc(-c2ccc(F)cc2F)n1 (stereo not shown) [Example 94, N-[3-Amino-2,3-dioxo-1-(phenylmethyl)propyl]-2-[3-(2,4-difluorophenyl)-1H-pyrazol-1-yl]pyridine-3-carboxamide] | ++ (++ means a Ki(cathepsin B)/Ki(calpain) ratio of ≧30) | ++ (++ means a Ki(cathepsin L)/Ki(calpain) ratio of ≧50) | + (+ means 10≦Ki(cathepsin K)/Ki(calpain)<30) | ++ (++ means a Ki(cathepsin S)/Ki(calpain) ratio of ≧100) |
| COc1ccc2c(c1)OCc1cn(-c3ncccc3C(=O)NC(Cc3ccccc3)C(=O)C(N)=O)nc1-2 (stereo not shown) [Example 142, N-[3-Amino-2,3-dioxo-1-(phenylmethyl)propyl]-2-[7-(methyloxy)chromeno[4,3-c]pyrazol-2(4H)-yl]pyridine-3-carboxamide] | + (+ means 10≦Ki(cathepsin B)/Ki(calpain)<30) | ++ (++ means a Ki(cathepsin L)/Ki(calpain) ratio of ≧50) | + (+ means 10≦Ki(cathepsin K)/Ki(calpain)<30) | ++ (++ means a Ki(cathepsin S)/Ki(calpain) ratio of ≧100) |
| COc1cc(F)ccc1-c1ccn(-c2ncccc2C(=O)NC(Cc2ccccc2)C(=O)C(N)=O)n1 (stereo not shown) [Example 125, N-[3-Amino-2,3-dioxo-1-(phenylmethyl)propyl]-2-{3-[4-fluoro-2-(methyloxy)phenyl]-1H-pyrazol-1-yl}pyridine-3-carboxamide] | ++ (++ means a Ki(cathepsin B)/Ki(calpain) ratio of ≧30) | ++ (++ means a Ki(cathepsin L)/Ki(calpain) ratio of ≧50) | ++ (++ means a Ki(cathepsin K)/Ki(calpain) ratio of ≧30) | ++ (++ means a Ki(cathepsin S)/Ki(calpain) ratio of ≧100) |
| NC(=O)C(=O)C(Cc1ccccc1)NC(=O)c1cccnc1-n1cc2c(n1)-c1ccccc1CC2 (stereo not shown) [Example 63, N-(3-Amino-1-benzyl-2,3-dioxopropyl)-2-(4,5-dihydro-2H-benzo[g]indazol-2-yl)nicotinamide] | + (+ means 10≦Ki(cathepsin B)/Ki(calpain)<30) | ++ (++ means a Ki(cathepsin L)/Ki(calpain) ratio of ≧50) | + (+ means 10≦Ki(cathepsin K)/Ki(calpain)<30) | ++ (++ means a Ki(cathepsin S)/Ki(calpain) ratio of ≧100) |
| Cc1c(Cl)ccc2c1-c1nn(-c3ncccc3C(=O)NC(Cc3ccccc3)C(=O)C(N)=O)cc1CO2 (stereo not shown) [Example 143, N-[3-Amino-2,3-dioxo-1-(phenylmethyl)propyl]-2-(8-chloro-9-methylchromeno[4,3-c]pyrazol-2(4H)-yl)pyridine-3-carboxamide] | ++ (++ means a Ki(cathepsin B)/Ki(calpain) ratio of ≧30) | ++ (++ means a Ki(cathepsin L)/Ki(calpain) ratio of ≧50) | ++ (++ means a Ki(cathepsin K)/Ki(calpain) ratio of ≧30) | ++ (++ means a Ki(cathepsin S)/Ki(calpain) ratio of ≧100) |
